Ends that are not written are not given here.
How the values were obtained:
microorganisms [1] = test: Peptide activities: targeting/binding, antimicrobial, growth or phenotype altering (Tables 7, 8); format: cell-based; design: key: B: targeting/binding activity;; M: antimicrobial activity;; G: Growth or phenotype altering; conditions: peptides having multiple activities
microorganisms [2] = test: Morphology, biofilm and growth disrupting peptides (Table 5); format: cell-based; design: key: A: Peptide aggregates; B: Less hyphal formation; Clumps; Diffuse clumps and small polyps; F: Diffuse growth; H: Thin; I: Growth inhibition; Microcolony formation; Rippled; Small polyps; Thick; W: Halo formation on top, microlonies on bottom
Excerpt: In certain embodiments peptides that induce alterations in phenotype or other biological activities can also be used as antimicrobial effector moieties.

Row | Substance | Activities (microorganisms [1]) | Organism, effect (microorganisms [2]; C. albicans) | Organism, effect (microorganisms [2]; C. jejuni) | Organism, effect (microorganisms [2]; E. coli) | Organism, effect (microorganisms [2]; E. faecalis) | Organism, effect (microorganisms [2]; MRSA) | Organism, effect (microorganisms [2]; P. aeruginosa) | Organism, effect (microorganisms [2]; S. epidermidis) | Organism, effect (microorganisms [2]; S. pneumoniae) | Organism, effect (microorganisms [2]; M. luteus) | Organism, effect (microorganisms [2]; S. mutans) | Organism, effect (microorganisms [2]; B. subtilis) | Organism, effect (microorganisms [2]; C. jeikeium) | Organism, effect (microorganisms [2]; P. mirabilis)
1 | PF-474: peptide having multiple activities (MHRNLVLVKMEPIPHIMIIANQIGIIIEKA; Peptide with targeting and/or antimicrobial activity) | G B | C. albicans (B) | C. jejuni (D) | E. coli (C) | E. faecalis (C) | MRSA (D) | P. aeruginosa (A) | S. epidermidis (C) | S. pneumoniae (D) |  |  |  |  | 
2 | PF-478: peptide having multiple activities (HLFILKSHLKPFPPFRYTYD; Peptide with targeting and/or antimicrobial activity) | G B |  |  | E. coli (C) |  | MRSA (H) |  | S. epidermidis (C) | S. pneumoniae (C) |  |  |  |  | 
3 | PF-479: peptide having multiple activities (AYILKRREEKNK; Peptide with targeting and/or antimicrobial activity) | G B |  |  |  |  |  |  |  | S. pneumoniae (C) |  |  |  |  | 
4 | PF-482: peptide having multiple activities (LVGYVRTSGTVRSYKIN; Peptide with targeting and/or antimicrobial activity) | G B |  |  |  |  |  |  |  | S. pneumoniae (S) |  |  |  |  | 
5 | PF-516: peptide having multiple activities (ASKQASKQASKQASKQ; Peptide with targeting and/or antimicrobial activity) | G |  |  |  |  |  |  |  | S. pneumoniae (H) |  |  |  |  | 
6 | PF-526: peptide having multiple activities (VLLLFIFQPFQKQLL-NH2) | G B | C. albicans (C) |  | E. coli (R) |  | MRSA (C) |  | S. epidermidis (C) | S. pneumoniae (R) |  |  |  |  | 
7 | PF-537: peptide having multiple activities (LANDYYKKTKKSW; Peptide with targeting and/or antimicrobial activity) | G B |  |  |  |  |  |  |  | S. pneumoniae (C) |  |  |  |  | 
8 | PF-539: peptide having multiple activities (SIILTKKKRRKIPLSIDSQIYKYTFKQ; Peptide with targeting and/or antimicrobial activity) | G B |  |  |  |  | MRSA (H) |  |  | S. pneumoniae (A) |  |  |  |  | 
9 | PF-543: peptide having multiple activities (NILFGIIGFVVAMTAAVIVTAISIAK; Peptide with targeting and/or antimicrobial activity) | G B |  |  | E. coli (C) |  | MRSA (D) |  | S. epidermidis (D) | S. pneumoniae (D) | M. luteus (C) | S. mutans (S) |  |  | 
10 | PF-544: peptide having multiple activities (FGEKQMRSWWKVHWFHP; Peptide with targeting and/or antimicrobial activity) | G B |  |  |  | E. faecalis (R) | MRSA (D) |  | S. epidermidis (D) | S. pneumoniae (M) |  |  |  |  | 
11 | PF-548: peptide having multiple activities (ARPIADLIHFNSTTVTASGDVYYGPG; Peptide with targeting and/or antimicrobial activity) | G B |  | C. jejuni (D) |  |  | MRSA (M) |  | S. epidermidis (M) | S. pneumoniae (D) | M. luteus (A) |  | B. subtilis (C) | C. jeikeium (R) | 
12 | PF-556: peptide having multiple activities (SLQIRMNTLTAAKASIEAA; Peptide with targeting and/or antimicrobial activity) | G B |  | C. jejuni (R) |  | E. faecalis (A) | MRSA (M) |  | S. epidermidis (A) | S. pneumoniae (D) | M. luteus (A) |  | B. subtilis (C) | C. jeikeium (D) | 
13 | PF-562: peptide having multiple activities (TPEQWLERSTVVVTGLLNRK; Peptide with targeting and/or antimicrobial activity) | G B |  | C. jejuni (R) |  |  | MRSA (M) |  | S. epidermidis (A) | S. pneumoniae (D) | M. luteus (R) |  |  |  | 
14 | PF-577: peptide having multiple activities (PFETRESFRVPVIGILGGWDYFMHP; Peptide with targeting and/or antimicrobial activity) | G B |  | C. jejuni (R) | E. coli (A) | E. faecalis (A) | MRSA (M) | P. aeruginosa (A) | S. epidermidis (A) | S. pneumoniae (R) |  |  |  |  | 
15 | PF-578: peptide having multiple activities (QKANLRIGFTYTSDSNVCNLTFALLGSK; Peptide with targeting and/or antimicrobial activity) | G B |  |  | E. coli (C) |  | MRSA (C) |  | S. epidermidis (D) | S. pneumoniae (D) | M. luteus (C) | S. mutans (D) |  |  | P. mirabilis (C)
16 | PF-581: peptide having multiple activities (WTARARR; Peptide with targeting and/or antimicrobial activity) | G B |  | C. jejuni (A) |  | E. faecalis (A) | MRSA (A) |  |  | S. pneumoniae (A) |  |  |  |  | 
17 | PF-586: peptide having multiple activities (chain 1 FFNQANYFFKEF; chain 2 FFNQANYFFKEF; Peptide with targeting and/or antimicrobial activity) | G B |  | C. jejuni (D) | E. coli (C) | E. faecalis (D) | MRSA (D) |  | S. epidermidis (C) | S. pneumoniae (D) |  |  |  |  | 
18 | PF-592: peptide having multiple activities (chain 1 IMKNYKYFKLFIVKYALF; chain 2 IMKNYKYFKLFIVKYALF; Peptide with targeting and/or antimicrobial activity) | G B |  | C. jejuni (S) | E. coli (C) | E. faecalis (D) | MRSA (D) |  | S. epidermidis (M) | S. pneumoniae (D) |  |  |  |  | 
19 | PF-595: peptide having multiple activities (chain 1 LQNKIYELLYIKERSKLCS; chain 2 LQNKIYELLYIKERSKLCS; Peptide with targeting and/or antimicrobial activity) | G B |  | C. jejuni (D) | E. coli (C) | E. faecalis (D) | MRSA (D) |  | S. epidermidis (C) | S. pneumoniae (R) |  |  |  |  | 
20 | PF-596: peptide having multiple activities (chain 1 SKMWDKILTILILILELIRELIKL; chain 2 SKMWDKILTILILILELIRELIKL; Peptide with targeting and/or antimicrobial activity) | G B |  | C. jejuni (D) | E. coli (C) | E. faecalis (D) | MRSA (D) |  | S. epidermidis (D) | S. pneumoniae (D) |  |  |  |  | 
21 | PF-605: peptide having multiple activities (chain 1 HYRWNTQWWKY; chain 2 HYRWNTQWWKY; Peptide with targeting and/or antimicrobial activity) | G B | C. albicans (B) | C. jejuni (R) | E. coli (C) | E. faecalis (R) | MRSA (C) | P. aeruginosa (A) | S. epidermidis (R) | S. pneumoniae (D) |  |  |  |  | 
22 | PF-610: peptide having multiple activities (chain 1 VFLKLKTSKIDLASIIFYP; chain 2 VFLKLKTSKIDLASIIFYP; Peptide with targeting and/or antimicrobial activity) | G B |  | C. jejuni (D) | E. coli (C) | E. faecalis (D) | MRSA (D) |  | S. epidermidis (C) | S. pneumoniae (D) |  |  |  |  | 
23 | PF-615: peptide having multiple activities (chain 1 FLNRFIFYIFTVKTKSALIKNLFLD; chain 2 FLNRFIFYIFTVKTKSALIKNLFLD; Peptide with targeting and/or antimicrobial activity) | G B |  | C. jejuni (D) | E. coli (C) | E. faecalis (D) | MRSA (D) |  | S. epidermidis (D) | S. pneumoniae (D) |  |  |  |  | 
